Experimental data from ChEMBL document CHEMBL4627364, “Design, synthesis and biological evaluation of novel hybrids of N-aryl pyrrothine-base α-pyrone as bacterial RNA polymerase inhibitors” (Bioorg Med Chem Lett, 2020).
Converted amounts (≈) assume the structure as drawn.

How the values were obtained:
Bacillus subtilis = assay: Antibacterial activity against Bacillus subtilis ATCC 6633 assessed as bacterial growth inhibition; type: functional
Staphylococcus aureus [1] = assay: Antibacterial activity against Staphylococcus aureus ATCC 29213 assessed as bacterial growth inhibition; type: functional
Escherichia coli [2] = assay: Antibacterial activity against Escherichia coli ATCC 25922 assessed as bacterial growth inhibition; type: functional
Enterococcus faecalis = assay: Antibacterial activity against Enterococcus faecalis ATCC 29212 assessed as bacterial growth inhibition; type: functional
Pseudomonas aeruginosa = assay: Antibacterial activity against Pseudomonas aeruginosa ATCC 27853 assessed as bacterial growth inhibition; type: functional
Candida albicans = assay: Antifungal activity against Candida albicans ATCC 10231 assessed as fungal growth inhibition; type: functional
Escherichia coli [3] = assay: Inhibition of Escherichia coli RNA polymerase at 200 uM relative to control
Staphylococcus aureus [4] = assay: Antibacterial activity against methicillin-resistant Staphylococcus aureus assessed as bacterial growth inhibition; type: functional
HepG2 = assay: Cytotoxicity against human HepG2 cells assessed as reduction in cell viability by MTT assay; type: cell-based
Staphylococcus aureus [5] = assay: Antibacterial activity against rifampicin-resistant Staphylococcus aureus assessed as bacterial growth inhibition; type: functional
Staphylococcus aureus [6] = assay: Antibacterial activity against vancomycin-resistant Staphylococcus aureus assessed as bacterial growth inhibition; type: functional
[7] = Inhibition of recombinant Escherichia coli RNA polymerase
[8] = Inhibition of Escherichia coli RNA polymerase

SMILES	MIC (Bacillus subtilis) [µg/mL]	MIC (Staphylococcus aureus [1]) [µg/mL]	MIC (Escherichia coli [2]) [µg/mL]	MIC (Enterococcus faecalis) [µg/mL]	MIC (Pseudomonas aeruginosa) [µg/mL]	MIC (Candida albicans) [µg/mL]	inhibition (Escherichia coli [3]) [%]	MIC (Staphylococcus aureus [4]) [µg/mL]	IC50 (HepG2) [µM]	MIC (Staphylococcus aureus [5]) [µg/mL]	MIC (Staphylococcus aureus [6]) [µg/mL]	IC50 [7] [µM]	IC50 [8] [µM]
COc1ccc(-n2c3cssc-3c(NC(=O)CCCCC(=O)c3c(O)cc(C)oc3=O)c2=O)c(OC)c1	16 (≈ 29.4 µM)	2 (≈ 3.67 µM)	> 128	64 (≈ 118 µM)	> 128	> 128	42.4						
COc1ccc(-n2c3cssc-3c(NC(=O)NCCOC(=O)CCCCC(=O)c3c(O)cc(C)oc3=O)c2=O)c(OC)c1	128 (≈ 203 µM)	4 (≈ 6.33 µM)	> 64	16 (≈ 25.3 µM)	> 128	> 128	36.5						
COc1ccc(-n2c3cssc-3c(NC(=O)NCCOC(=O)CCCC(=O)c3c(O)cc(C)oc3=O)c2=O)c(OC)c1	32 (≈ 51.8 µM)	32 (≈ 51.8 µM)	> 64	4 (≈ 6.48 µM)	> 128	> 128	25.3						
COc1ccc(-n2c3cssc-3c(NC(=O)CCCC(=O)c3c(O)cc(C)oc3=O)c2=O)c(OC)c1	32 (≈ 60.3 µM)	2 (≈ 3.77 µM)	> 64	16 (≈ 30.2 µM)	> 128	> 128	35.4	1 to 2 (≈ 1.88 to 3.77 µM)	29	2 to 4 (≈ 3.77 to 7.54 µM)	4 to 8 (≈ 7.54 to 15.1 µM)		
COc1ccc(-n2c3cssc-3c(NC(=O)N(C)CCOC(=O)CCCCCCC(=O)c3c(O)cc(C)oc3=O)c2=O)c(OC)c1	32 (≈ 47.5 µM)	16 (≈ 23.7 µM)	> 64	8 (≈ 11.9 µM)	> 128	> 128	32.1						
COc1ccc(-n2c3cssc-3c(NC(=O)N(C)CCOC(=O)CCCC(=O)c3c(O)cc(C)oc3=O)c2=O)c(OC)c1	32 (≈ 50.7 µM)	2 (≈ 3.17 µM)	> 128	2 (≈ 3.17 µM)	> 128	> 128	23.8	1 to 2 (≈ 1.58 to 3.17 µM)	5.32	2 to 4 (≈ 3.17 to 6.33 µM)	2 to 4 (≈ 3.17 to 6.33 µM)		
CCC/C(C)=C/C=C(\C)C(=O)c1c(O)cc([C@H](C)CC/C=C/NC(=O)OC)oc1=O [MYXOPORIN A]												24	
COc1ccc(-n2c3cssc-3c(NC(=O)N(C)CCOC(=O)CCCCC(=O)c3c(O)cc(C)oc3=O)c2=O)c(OC)c1	32 (≈ 49.6 µM)	2 (≈ 3.1 µM)	> 128	16 (≈ 24.8 µM)	> 128	> 128		1 to 2 (≈ 1.55 to 3.1 µM)	2.76	1 to 2 (≈ 1.55 to 3.1 µM)	4 to 8 (≈ 6.19 to 12.4 µM)		45.9
COc1ccc(-n2c3cssc-3c(NC(=O)OCCOC(=O)CCCCC(=O)c3c(O)cc(C)oc3=O)c2=O)c(OC)c1	32 (≈ 50.6 µM)	2 (≈ 3.16 µM)	> 128	16 (≈ 25.3 µM)	> 128	> 128		1 to 2 (≈ 1.58 to 3.16 µM)	9.43	2 to 4 (≈ 3.16 to 6.32 µM)	2 to 4 (≈ 3.16 to 6.32 µM)		65.9
COc1ccc(-n2c3cssc-3c(NC(=O)CCCCCCC(=O)c3c(O)cc(C)oc3=O)c2=O)c(OC)c1	32 (≈ 55.9 µM)	64 (≈ 112 µM)	> 128	> 128	> 128	> 128	43.4						
COc1ccc(-n2c3cssc-3c(NC(=O)OCCOC(=O)CCCC(=O)c3c(O)cc(C)oc3=O)c2=O)c(OC)c1	32 (≈ 51.7 µM)	1 (≈ 1.62 µM)	> 128	4 (≈ 6.47 µM)	> 128	> 128	41.3	1 to 2 (≈ 1.62 to 3.23 µM)	1.97	1 to 2 (≈ 1.62 to 3.23 µM)	4 to 8 (≈ 6.47 to 12.9 µM)		
CO[C@H]1/C=C/O[C@@]2(C)Oc3c(C)c(O)c4c(O)c(c(/C=N/N5CCN(C)CC5)c(O)c4c3C2=O)NC(=O)/C(C)=C\C=C\[C@H](C)[C@H](O)[C@@H](C)[C@@H](O)[C@@H](C)[C@H](OC(C)=O)[C@@H]1C [RIFAMPIN]	0.125 (≈ 0.152 µM)	0.5 (≈ 0.608 µM)	8 (≈ 9.72 µM)	0.5 (≈ 0.608 µM)	> 64	> 64		0.125 to 0.25 (≈ 0.152 to 0.304 µM)	145	> 64	0.0625 to 0.125 (≈ 0.0759 to 0.152 µM)		0.14
O=C(O)c1cn(C2CC2)c2cc(N3CCNCC3)c(F)cc2c1=O [CIPROFLOXACIN]	0.125 (≈ 0.377 µM)	0.078 (≈ 0.235 µM)	0.00625 (≈ 0.0189 µM)	0.5 (≈ 1.51 µM)									
COc1ccc(-n2c3cssc-3c(NC(=O)NCCOC(=O)CCCCCCC(=O)c3c(O)cc(C)oc3=O)c2=O)c(OC)c1	128 (≈ 194 µM)	128 (≈ 194 µM)	> 128	32 (≈ 48.5 µM)	> 128	> 128							56.3
CN[C@H](CC(C)C)C(=O)N[C@H]1C(=O)N[C@@H](CC(N)=O)C(=O)N[C@H]2C(=O)N[C@H]3C(=O)N[C@H](C(=O)N[C@H](C(=O)O)c4cc(O)cc(O)c4-c4cc3ccc4O)[C@H](O)c3ccc(c(Cl)c3)Oc3cc2cc(c3O[C@@H]2O[C@H](CO)[C@@H](O)[C@H](O)[C@H]2O[C@H]2C[C@](C)(N)[C@H](O)[C@H](C)O2)Oc2ccc(cc2Cl)[C@H]1O [VANCOMYCIN]	1 (≈ 0.69 µM)		> 128					1 to 2 (≈ 0.69 to 1.38 µM)		1 to 2 (≈ 0.69 to 1.38 µM)	> 64		
COc1ccc(-n2c3cssc-3c(NC(=O)OCCOC(=O)CCCCCCC(=O)c3c(O)cc(C)oc3=O)c2=O)c(OC)c1	32 (≈ 48.4 µM)	1 (≈ 1.51 µM)	> 128	2 (≈ 3.03 µM)	> 128	> 128		1 to 2 (≈ 1.51 to 3.03 µM)	7.04	1 to 2 (≈ 1.51 to 3.03 µM)	2 to 4 (≈ 3.03 to 6.05 µM)		16.1
